Legend:
Homo sapiens = test: Induction of fluoride toxicity in human assessed as fluoride level in plasma at 200 mg, po BID administered for at least 6 months (reference value: 2.54 uM); assay type: organism-based; conditions: in vivo
[1] = Lipophilicity, logD of the compound; assay type: physicochemical; conditions: octanol/water
[2] = Volume of distribution at steady state in Sprague-Dawley rat at 0.5 mg/kg, iv administered as single dose measured after 0.083 to 48 hrs; assay type: ADME, organism-based; conditions: in vivo, read-out: Vdss
[3] = Volume of distribution at steady state in rhesus monkey at 0.1 mg/kg, iv administered as single dose measured after 0.083 to 48 hrs; assay type: ADME, organism-based, Macaca mulatta; conditions: in vivo, read-out: Vdss
[4] = Drug recovery in bile duct-cannulated Sprague-Dawley rat feces at 10 mg/kg, po administered as single dose using 14C labelled compound measured after 48 hrs; assay type: ADME, organism-based; conditions: in vivo
[5] = Drug recovery in bile duct-cannulated rhesus monkey feces at 10 mg/kg, po administered as single dose using 14C labelled compound measured after 96 hrs; assay type: ADME, organism-based, Macaca mulatta; conditions: in vivo
[6] = Drug degradation assessed as 4-[[9-[(2-fluoro-4-pyridyl)methyl]-10-oxo-9-anthryl]methyl]-1H-pyridin-2-one metabolite formation by measuring relative abundance measured after preserving compound for 6 months at 40 degreeC by LC-MS/MS analysis; assay type: physicochemical; conditions: 4383 h
[7] = Drug degradation in presence of 1% magnesium stearate and lactose monohydrate measured after preserving compound for 1 to 3 months at 40 degreeC by LC-MS/MS analysis; assay type: physicochemical; conditions: read-out: Drug degradation
[8] = Photodegradation of compound in deionized H20 at 10 uM by HPLC analysis; assay type: physicochemical; conditions: deionized water
[9] = Drug metabolism in human; assay type: ADME; conditions: read-out: Drug metabolism
[10] = Elimination half life in human at 25 to 1200 mg, po administered as suspension measured after 5 to 816 hrs by HPLC-MS/MS analysis; assay type: ADME, organism-based; conditions: in vivo, read-out: beta t1/2
Adenosylhomocysteinase = biological target: T1, Adenosylhomocysteinase (Rattus norvegicus, UniProt P10760); test: Reversible inhibition of rat liver S- adenosyl-L-homocysteine hydrolase using SAH as substrate by spectrophotometric method
T1 sequence (P10760 whole entry): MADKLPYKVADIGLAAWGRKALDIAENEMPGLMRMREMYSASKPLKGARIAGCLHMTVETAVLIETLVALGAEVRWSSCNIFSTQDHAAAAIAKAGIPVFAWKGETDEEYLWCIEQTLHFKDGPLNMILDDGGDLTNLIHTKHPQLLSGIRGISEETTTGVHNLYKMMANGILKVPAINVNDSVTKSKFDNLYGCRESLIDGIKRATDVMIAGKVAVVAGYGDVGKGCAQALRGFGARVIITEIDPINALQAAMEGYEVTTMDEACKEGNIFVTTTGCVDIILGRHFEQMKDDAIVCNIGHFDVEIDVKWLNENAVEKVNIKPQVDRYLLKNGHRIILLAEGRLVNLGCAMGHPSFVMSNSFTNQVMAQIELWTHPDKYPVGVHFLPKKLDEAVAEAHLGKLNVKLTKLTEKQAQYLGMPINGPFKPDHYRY

Cytochrome P450 2C8 = biological target: T2, Cytochrome P450 2C8 (Homo sapiens, UniProt P10632); test: Inhibition of CYP2C8 (unknown origin) assessed as reduction in amodiaquine N-deethylation; assay type: ADME
T2 sequence (P10632 whole entry): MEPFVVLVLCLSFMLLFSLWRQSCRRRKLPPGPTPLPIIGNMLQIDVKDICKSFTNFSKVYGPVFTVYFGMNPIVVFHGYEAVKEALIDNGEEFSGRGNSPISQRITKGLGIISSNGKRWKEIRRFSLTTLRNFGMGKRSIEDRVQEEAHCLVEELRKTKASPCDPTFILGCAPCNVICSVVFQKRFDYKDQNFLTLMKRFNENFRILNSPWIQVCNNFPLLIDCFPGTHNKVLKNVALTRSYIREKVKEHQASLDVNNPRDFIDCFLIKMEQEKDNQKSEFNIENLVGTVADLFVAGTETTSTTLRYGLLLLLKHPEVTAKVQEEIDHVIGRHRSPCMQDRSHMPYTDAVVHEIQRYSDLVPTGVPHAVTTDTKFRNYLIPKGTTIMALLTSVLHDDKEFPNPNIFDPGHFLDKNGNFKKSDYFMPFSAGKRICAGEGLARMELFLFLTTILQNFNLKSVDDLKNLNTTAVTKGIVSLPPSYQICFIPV

Cytochrome P450 2C9 = Cytochrome P450 2C9 (Homo sapiens, UniProt P11712); test: Inhibition of CYP2C9 (unknown origin) assessed as reduction in diclofenac 4-hydroxylation; assay type: ADME
[11] = Prodrug conversion in Sprague-Dawley rat assessed as acyclovir recovery in urine at 0.1 mmol/kg, po measured over 48 hrs by HPLC analysis; assay type: ADME, organism-based; conditions: in vivo
[12] = Drug recovery in rat excreta assessed as metabolically unchanged parent compound at 100 mg/kg, po; assay type: ADME, organism-based; conditions: read-out: Drug recovery
[13] = biological target: T3, Alanine racemase, biosynthetic (Escherichia coli K-12, UniProt P0A6B4); test: Substrate activity at Escherichia coli B alanine racemase assessed as 2-oxobut-3-enoic acid formation; assay type: ADME
[14] = biological target: T3, Alanine racemase, biosynthetic; test: Substrate activity at Escherichia coli B alanine racemase assessed as (S)-6-amino-2-((E)-1-carboxy-1-((E)-(3-hydroxy-2-methyl-5-(phosphonooxymethyl)pyridin-4-yl)methyleneamino)prop-1-en-2-ylamino)hexanoic acid formation; assay type: ADME
[15] = biological target: T3, Alanine racemase, biosynthetic; test: Substrate activity at Escherichia coli B alanine racemase assessed as (2S)-6-amino-2-(((Z)-1-carboxyallylideneamino)(3-hydroxy-2-methyl-5-(phosphonooxymethyl)pyridin-4-yl)methylamino)hexanoic acid adduct formation; assay type: ADME
[16] = Half life in rat at 10 mg/kg, iv; assay type: ADME, organism-based; conditions: in vivo
[17] = Half life in human at 0.25 mg, iv administered as single dose measured up to 168 hrs; assay type: ADME, organism-based; conditions: in vivo
[18] = Volume of distribution in human at 0.25 mg, iv administered as single dose measured up to 168 hrs; assay type: ADME, organism-based; conditions: in vivo
[19] = Oral bioavailability in human at 2 mg administered as single dose and measured up to 168 hrs; assay type: ADME, organism-based; conditions: in vivo
[20] = Half life in human hepatocytes; assay type: ADME, cell-based, Hepatocyte
[21] = Half life in rat; assay type: ADME; conditions: in vivo
[22] = Half life in dog; assay type: ADME, Canis lupus familiaris; conditions: in vivo
[23] = Drug metabolism assessed as first order rate constant for 6-formyltryptophan formation; assay type: physicochemical

T3 sequence (P0A6B4 whole entry): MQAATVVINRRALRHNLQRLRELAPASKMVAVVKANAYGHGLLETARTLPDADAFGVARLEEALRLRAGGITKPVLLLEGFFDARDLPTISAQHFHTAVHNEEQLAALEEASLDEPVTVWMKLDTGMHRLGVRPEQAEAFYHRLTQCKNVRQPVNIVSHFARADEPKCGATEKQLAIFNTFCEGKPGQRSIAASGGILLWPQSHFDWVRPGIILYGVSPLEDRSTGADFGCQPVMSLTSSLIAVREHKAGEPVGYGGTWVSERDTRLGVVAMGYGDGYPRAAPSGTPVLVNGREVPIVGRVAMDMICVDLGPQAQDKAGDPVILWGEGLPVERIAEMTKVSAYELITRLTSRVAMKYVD
Sequence of Cytochrome P450 2C9 (P11712 whole entry): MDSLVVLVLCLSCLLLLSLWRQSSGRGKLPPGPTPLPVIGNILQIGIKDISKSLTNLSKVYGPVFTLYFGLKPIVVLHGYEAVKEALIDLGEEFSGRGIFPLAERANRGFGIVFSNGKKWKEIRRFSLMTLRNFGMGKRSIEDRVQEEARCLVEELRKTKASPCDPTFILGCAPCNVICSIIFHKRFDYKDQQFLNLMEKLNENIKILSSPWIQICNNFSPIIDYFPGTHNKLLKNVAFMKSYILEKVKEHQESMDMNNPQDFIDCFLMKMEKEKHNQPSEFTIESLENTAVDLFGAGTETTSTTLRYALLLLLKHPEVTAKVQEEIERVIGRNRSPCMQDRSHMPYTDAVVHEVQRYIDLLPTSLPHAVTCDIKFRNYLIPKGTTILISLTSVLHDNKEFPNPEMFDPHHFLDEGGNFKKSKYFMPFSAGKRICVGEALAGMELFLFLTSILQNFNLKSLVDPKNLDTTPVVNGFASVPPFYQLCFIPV

C[C@@H](c1ncncc1F)[C@](O)(Cn1cncn1)c1ccc(F)cc1F [VORICONAZOLE] showed an Activity (Homo sapiens) of 14.32 µM.
In the case of COc1cc(F)c(C(C)C)cc1-c1ccc(C(F)(F)F)cc1CN1C(=O)O[C@H](c2cc(C(F)(F)F)cc(C(F)(F)F)c2)[C@@H]1C [ANACETRAPIB], the logD [1] is reported as 7.1, the Vd [2] is reported as 1.1 L/kg and the Vd [3] is reported as 0.3 L/kg. It also gave a Drug recovery [4] of 80% and a Drug recovery [5] of 90%.
In the case of O=C1c2ccccc2C(Cc2ccnc(F)c2)(Cc2ccnc(F)c2)c2ccccc21, the Activity [6] is reported as 0.5% and the degraded [7] is reported as less than 0.1%.
Molecule CNCCC(Oc1ccc(C(F)(F)F)cc1)c1ccccc1 (configuration not stated) [FLUOXETINE] has a half-life at 10 µM [8] of 55.2 h.
In the case of FCOC(C(F)(F)F)C(F)(F)F [SEVOFLURANE], the metabolised [9] is reported as 2 to 5%.
In the case of Cc1cc(Nc2ccc(S(F)(F)(F)(F)F)cc2)n2nc(C(C)(F)F)nc2n1 [DSM-265], the half-life [10] is reported as 86 to 118 h.
In the case of Nc1ncnc2c1ncn2[C@@H]1C=C(CO)[C@@H](O)[C@H]1O [NEOPLANOCIN A], the Ki (Adenosylhomocysteinase) is reported as 0.00839 µM.
With Cc1ccc(NC(=O)C2(c3ccc4c(c3)OC(F)(F)O4)CC2)nc1-c1cccc(C(=O)O)c1 [LUMACAFTOR] the IC50 (Cytochrome P450 2C8) was 12 µM and the IC50 (Cytochrome P450 2C9) was 32 µM.
Molecule CC(C)C(=O)OCCOCn1cnc2c(F)nc(N)nc21 has a Drug recovery [11] of 51%.
In the case of N#Cc1c[nH]cc1-c1cccc2c1OC(F)(F)O2 [FLUDIOXONIL], the dose excreted [12] is reported as 12%.
Work on C=C=C(/N=C/c1c(COP(=O)(O)O)cnc(C)c1O)C(=O)O yielded an Activity [13] of 57%, an Activity [14] of 12% and an Activity [15] of 31%.
CCNC(C)Cc1cccc(SC(F)(F)F)c1 (racemic) [TIFLOREX] showed a half-life [16] of 7.4 h.
C[C@@H]1C[C@H]2[C@@H]3C[C@H](F)C4=CC(=O)C=C[C@]4(C)[C@@]3(F)[C@@H](O)C[C@]2(C)[C@@]1(OC(=O)c1ccco1)C(=O)SCF [FLUTICASONE FUROATE] showed a half-life [17] of 15.3 h, a Vd [18] of 642 L and a bioavailability [19] of 1.6%.
In the case of N[C@H]1C[C@@H](C(=O)O)CC1=C(F)F [CPP-115 FREE BASE], the half-life [20] is reported as 20 h, the half-life [21] is reported as 1 to 2.3 h and the half-life [22] is reported as 1 to 2.3 h.
Work on N[C@@H](Cc1c[nH]c2cc(C(F)F)ccc12)C(=O)O yielded a K [23] of 0.0039 min⁻¹.

Source: ChEMBL document CHEMBL4613261, “Metabolic and Pharmaceutical Aspects of Fluorinated Compounds” (J Med Chem, 2020)
